Reference: patent US20250275986A1, “COMBINATION OF A KETONE BODY OR KETOGENIC COMPOUND WITH AN ANALGESIC OR ANTIOXIDANT” (KETOSWISS AG, priority 2021, published 2025)

System: headache during an acute migraine attack
Experiment: Intensity of the headache (visual analogue scale 0 to 10) during acute migraine attacks in one migraine patient after intake of the substance(s)
Type: in vivo, human
Protocol: During the course of the trial, the patient had 17 recorded acute migraine attacks which were treated by either one of the following nine treatment regimes: • 1. 13 g flavoured mix of β-hydroxbutyrate (βHB) mineral salts termed “MigraKet” (a ketone body) • 2. 500 mg acetylsalicylic acid (a simple analgesic) • 3. 400 mg ibuprofen (a simple analgesic) • 4. 13 g MigraKet+500 mg acetylsalicylic acid (combination of a ketone body and a simple analgesic) • 5. 13 g MigraKet+400 mg ibuprofen (combination of a ketone body and a simple analgesic) • 6. 2.5 mg frovatriptan (a triptan) • 7. 13 g MigraKet+2.5 mg frovatriptan (combination of a ketone body and a triptan) • 8. 9 mg melatonin • 9. 13 g MigraKet+9 mg melatonin (combination of a ketone body and an antioxidant such as melatonin) The “MigraKet” consisted of:
10g of a sodium, potassium, magnesium and calcium D-βHB mineral mix in a 1:1:2:2 ratio, and 3g of flavour (malic acid and natural lemon and lime flavour sweetend by stevia), dissolved in 0.51 of still water.
The intensity of the headache (pain) was recorded at the time of intake of the substance(s) (0h), and at five subsequent time-points during the course of one day (2h, 4 h, 8h, 12 h, 24h after substance intake). The intensity of the headache (pain) was categorized on a visual analogue scale from 0 (“no pain”) to 10 (“worst pain imaginable”). […]

SMILES	time for which the headache was eliminated (after intake, melatonin with βHB: in 1 out of 2 instances, b14: taken when intensity about 0 to about 4)	effect on the headache in words (over the course of 24 hours)
CN[C@@H]1CCc2[nH]c3ccc(C(N)=O)cc3c2C1 [Frovatriptan, frovatriptan]	less than 12 h	
COc1ccc2[nH]cc(CCNC(C)=O)c2c1 [Melatonin, N-[2-(5-Methoxyindol-3-yl)ethyl]acetamid]		did not ameliorate the headache
